Measured values reported in patent US8940781B2, “Pesticidal composition and its use” (Sumitomo Chemical Company, Limited, priority 2010, dated 2015).

Test system: Rhizoctonia solani
Assay: Soybean seed treatment test in soil contaminated by Rhizoctonia solani (disease control efficacy)
Type: in vivo, Rhizoctonia solani on soybean (variety: Natto shoryu)
Conditions: seed treatment of soybean; carboxamide compound alone 0.2 g/100 kg of seeds; cultivated 20 days in contaminated soil; versus non-treated plot
Procedure: A cyclohexanone solution (100 microL) containing prescribed amount (weight) of a test compound was applied on seeds of soybean (variety: Natto shoryu) (10 g) by using a rotary apparatus for seed treatment (Seed dresser, manufactured by Hans-Ulrich Hege GmbH).
One day after the application, plastic pot was filled with soil contaminated by Rhizoctonia solani, and the seeds treated with the test compounds were seeded in the soil and cultivated in a glass-greenhouse for 20 days (hereinafter referred to as “treated plot”).
Thereafter, the presence of disease caused by Rhizoctonia solani in the young plants which germinated from each seed was observed and disease severity was calculated according to the following calculation formula (1).
On the other hand, seeds of soybean which were not treated as above were cultivated in the same way as above (hereinafter referred to as “non-treated plot”) and the disease severity in the “non-treated plot” was calculated in the same way as the above “treated plot”. On the basis of the above disease severity in “treated plot” and “non-treated plot”, efficacy in “treated plot” was evaluated according to the following calculation formula (2). […]

SMILES | efficacy (%)
CC1CC(C)(C)c2cccc(NC(=O)c3cn(C)nc3C(F)F)c21 (centres unmarked) [carboxamide compound (1)] | 47.4
Cc1nn(C)c(C)c1C(=O)Nc1cccc2c1C(C)CC2(C)C (centres unmarked) [carboxamide compound (5)] | 15.8
